The record followed here is patent US20240025919A1, “AZA-TETRACYCLIC OXAZEPINE COMPOUNDS AND USES THEREOF” (Genentech, Inc., priority 2022, published 2024).

Each structure is given as a SMILES string.

One experiment concerns the target KRAS G12D (Homo sapiens (Human), UniProt P01116, G12D). Nature of the experiment: KRAS G12D LoEnz Biochemical Assay, BODIPY-GDP Exchange TR-FRET (SOS1-mediated nucleotide exchange). As to conditions: read-out: KRas (G12D) GDP HTRF IC50. Background: Time-resolved FRET reads energy transfer from a long-lived donor to a nearby acceptor.
A further experiment addresses KRAS WT (Homo sapiens (Human), UniProt P01116). Nature of the experiment: KRAS WT Biochemical Assay, BODIPY-GDP Exchange TR-FRET (Example 502; 0.06 nM KRAS WT, 15 nM GDP, 300 nM SOS1, 120-minute incubation). The following applies: read-out: KRas HTRF IC50. In outline: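 Biotin-tagged recombinant KRAS WT (0.06 nM) preloaded with 15 nM GDP and Tb-streptavidin, 10 min RT, then exchange started with 300 nM SOS1 plus 300 nM BODIPY-GDP in HEPES pH 7.5 buffer with MgCl2. TR-FRET 520/490 ratio read after 120 min; normalized to DMSO and full-inhibition control; IC50 from 4-parameter fit.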

KRAS WT, sequence (P01116-2 other isoform, or with tags, fused parts or gaps): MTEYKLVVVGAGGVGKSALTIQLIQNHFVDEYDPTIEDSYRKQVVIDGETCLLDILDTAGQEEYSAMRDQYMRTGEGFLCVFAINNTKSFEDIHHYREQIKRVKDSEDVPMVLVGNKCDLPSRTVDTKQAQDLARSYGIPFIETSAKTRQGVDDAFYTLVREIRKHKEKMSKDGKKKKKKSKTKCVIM
KRAS G12D, sequence (P01116-2 other isoform, or with tags, fused parts or gaps G12D): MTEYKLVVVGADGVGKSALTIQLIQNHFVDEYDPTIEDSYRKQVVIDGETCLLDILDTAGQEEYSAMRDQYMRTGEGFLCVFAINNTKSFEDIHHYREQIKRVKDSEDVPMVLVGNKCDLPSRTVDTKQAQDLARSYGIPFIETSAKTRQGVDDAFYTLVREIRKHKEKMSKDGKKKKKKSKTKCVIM

As usually defined, the IC50 is the concentration needed to halve the response being measured. Regarding `Cc1cc(N)c(F)c(-c2nc3c4c(nc(OC[C@@H]5CC[C@H]6COCCN65)nc4c2F)N2C[C@H]4CC[C@H](N4)[C@H]2[C@H](C)O3)c1C=C(F)F` [Compound 99, 4-(2,2-Difluorovinyl)-2-fluoro-3-((5S,5aS,6S,9R)-1-fluoro-12-(((6S,8aS)-hexahydro-1H-pyrrolo[2,1-c][1,4]oxazin-6-yl)methoxy)-5-methyl-5a,6,7,8,9,10-hexahydro-5H-4-oxa-3,10a,11,13,14-pentaaza-6,9-methanonaphtho[1,8-ab]heptalen-2-yl)-5-methylaniline], the IC50 on KRAS G12D was determined as 2.09 nM; on KRAS WT, 506 nM.

In the case of `Cc1c(F)c(N)cc(-c2nc3c4c(nc(OCC56C[C@@H](F)CN5C[C@H](F)C6)nc4c2F)N2C[C@H]4CC[C@H](N4)[C@H]2[C@H](C)O3)c1C(F)(F)F` [Compound 140, 5-((5S,5aS,6S,9R)-12-(((2R,6R)-2,6-Difluorotetrahydro-1H-pyrrolizin-7a(5H)-yl)methoxy)-1-fluoro-5-methyl-5a,6,7,8,9,10-hexahydro-5H-4-oxa-3,10a,11,13,14-pentaaza-6,9-methanonaphtho[1,8-ab]heptalen-2-yl)-2-fluoro-3-methyl-4-(trifluoromethyl)aniline], the values for the IC50 at KRAS G12D and on KRAS WT were 0.14 nM and 18.4 nM, respectively.

With `Cc1c(F)c(N)cc(-c2nc3c4c(nc(OC[C@@]56CCCN5C[C@H](F)C6)nc4c2F)N2C[C@H]4CC[C@H](N4)[C@H]2CO3)c1C(F)(F)F` [Compound 61, 2-Fluoro-5-((5aS,6S,9R)-1-fluoro-12-(((2R,7aS)-2-fluorotetrahydro-1H-pyrrolizin-7a(5H)-yl)methoxy)-5a,6,7,8,9,10-hexahydro-5H-4-oxa-3,10a,11,13,14-pentaaza-6,9-methanonaphtho[1,8-ab]heptalen-2-yl)-3-methyl-4-(trifluoromethyl)aniline], the IC50 on KRAS G12D worked out at 0.21 nM; at KRAS WT it was 30.5 nM.

As for `Cc1c(F)c(N)cc(-c2nc3c4c(nc(OC[C@]5(CC(F)F)CCCN5C)nc4c2F)N2C[C@H]4CC[C@H](N4)[C@H]2[C@H](C)O3)c1C(F)(F)F` (single isomer, unassigned) [150 (isomer 2)], the IC50 at KRAS G12D came out at 0.25 nM; at KRAS WT it was 64.5 nM.

In the case of `C[C@@H]1Oc2nc(-c3cccc4sc(N)nc34)c(F)c3nc(OC[C@@]45CCCN4C[C@H](F)C5)nc(c23)N2C[C@H]3CC[C@H](N3)[C@@H]12` [Compound 116, 4-((5S,5aS,6S,9R)-1-fluoro-12-(((2R,7aS)-2-fluorotetrahydro-1H-pyrrolizin-7a(5H)-yl)methoxy)-5-methyl-5a,6,7,8,9,10-hexahydro-5H-4-oxa-3,10a,11,13,14-pentaaza-6,9-methanonaphtho[1,8-ab]heptalen-2-yl)benzo[d]thiazol-2-amine], the figures for the IC50 on KRAS G12D and on KRAS WT were 2.41 nM and 213 nM, respectively.

With `Cc1c(F)c(N)cc(-c2nc3c4c(nc(OC[C@@]56CCCN5CC5(CC5(F)F)C6)nc4c2F)N2C[C@H]4CC[C@H](N4)[C@H]2[C@H](C)O3)c1C(F)(F)F` (stereo partly drawn) [Compound 62, 5-((5S,5aS,6S,9R)-12-(((7a'S)-2,2-Difluorodihydro-1′H,3′H-spiro[cyclopropane-1,2′-pyrrolizin]-7a′(5′H)-yl)methoxy)-1-fluoro-5-methyl-5a,6,7,8,9,10-hexahydro-5H-4-oxa-3,10a,11,13,14-pentaaza[6,9]methanonaphtho[1,8-ab]heptalen-2-yl)-2-fluoro-3-methyl-4-(trifluoromethyl)aniline], the IC50 stood at 0.083 nM at KRAS G12D and 0.29 nM at KRAS WT.

Regarding `C[C@@H]1Oc2nc(-c3cc(N)c(F)c(F)c3C(F)(F)F)c(F)c3nc(OCC45CCN4CC(F)(F)C5)nc(c23)N2C[C@H]3CC[C@H](N3)[C@@H]12` (stereo partly drawn) [Compound 155, 5-((5S,5aS,6S,9R)-12-((3,3-difluoro-1-azabicyclo[3.2.0]heptan-5-yl)methoxy)-1-fluoro-5-methyl-5a,6,7,8,9,10-hexahydro-5H-4-oxa-3,10a,11,13,14-pentaaza-6,9-methanonaphtho[1,8-ab]heptalen-2-yl)-2,3-difluoro-4-(trifluoromethyl)aniline], the values for the IC50 on KRAS G12D and at KRAS WT were 0.22 nM and 31.5 nM, respectively.

Consider `CCc1cccc2nc(N)cc(-c3nc4c5c(nc(OC[C@@]67CCCN6C[C@H](F)C7)nc5c3F)N3C[C@H]5CC[C@H](N5)[C@H]3[C@H](C)O4)c12` [Compound 179, 5-Ethyl-4-((5S,5aS,6S,9R)-1-fluoro-12-(((2R,7aS)-2-fluorotetrahydro-1H-pyrrolizin-7a(5H)-yl)methoxy)-5-methyl-5a,6,7,8,9,10-hexahydro-5H-4-oxa-3,10a,11,13,14-pentaaza-6,9-methanonaphtho[1,8-ab]heptalene-2-yl)quinolin-2-amine], for which the results for the IC50 on KRAS G12D and at KRAS WT were 6.64 nM and 659 nM, respectively.

With `Cc1c(F)c(N)cc(-c2nc3c4c(nc(OC[C@@]56CCCN5C[C@H](F)C6)nc4c2F)N2C[C@H]4CC[C@H](N4)[C@H]2[C@H](C)O3)c1S(C)(=O)=O` [Compound 180, 2-Fluoro-5-((5S,5aS,6S,9R)-1-fluoro-12-(((2R,7aS)-2-fluorotetrahydro-1H-pyrrolizin-7a(5H)-yl)methoxy)-5-methyl-5a,6,7,8,9,10-hexahydro-5H-4-oxa-3,10a,11,13,14-pentaaza-6,9-methanonaphtho[1,8-ab]heptalene-2-yl)-3-methyl-4-(methylsulfonyl)aniline], the values for the 50% inhibitory concentration (IC50) at KRAS G12D and on KRAS WT were 17.4 nM and 2740 nM, respectively.

Consider `Cc1c(F)c(N)cc(-c2nc3c4c(nc(OC[C@H]5C[C@@H]6COCCN65)nc4c2F)N2C[C@H]4CC[C@H](N4)[C@H]2[C@H](C)O3)c1C(F)(F)F` (mixture of isomers) [159 (mixture), 5-((5S,5aS,6S,9R)-12-((4-Oxa-1-azabicyclo[4.2.0]octan-8-yl)methoxy)-1-fluoro-5-methyl-5a,6,7,8,9,10-hexahydro-5H-4-oxa-3,10a,11,13,14-pentaaza-6,9-methanonaphtho[1,8-ab]heptalen-2-yl)-2-fluoro-3-methyl-4-(trifluoromethyl)aniline], for which the figures for the IC50 on KRAS G12D and on KRAS WT were 0.23 nM and 45.2 nM, respectively.

As for `Cc1c(F)c(N)cc(-c2nc3c4c(nc(OC[C@@H]5CC[C@@H]6C[C@@H](C(=O)N(C)C)CCN65)nc4c2F)N2C[C@H]4CC[C@H](N4)[C@H]2[C@H](C)O3)c1C(F)(F)F` (single isomer, unassigned) [133 (isomer 1)], the half-maximal inhibitory concentration (IC50) at KRAS G12D came out at 0.12 nM; on KRAS WT, 13.6 nM.

Regarding `Cc1c(F)c(N)cc(-c2nc3c4c(nc(OCC5(CN6CCO[C@@H](CF)C6)CC5)nc4c2F)N2C[C@H]4CC[C@H](N4)[C@H]2[C@H](C)O3)c1C(F)(F)F` [Compound 172, 2-Fluoro-5-((5S,5aS,6S,9R)-1-fluoro-12-((1-(((R)-2-(fluoromethyl)morpholino)methyl)cyclopropyl)methoxy)-5-methyl-5a,6,7,8,9,10-hexahydro-5H-4-oxa-3,10a,11,13,14-pentaaza-6,9-methanonaphtho[1,8-ab]heptalen-2-yl)-3-methyl-4-(trifluoromethyl)aniline], the 50% inhibitory concentration (IC50) was found to be 0.24 nM at KRAS G12D and 11.1 nM at KRAS WT.

Consider `C[C@@H]1Oc2nc(-c3cc(N)c(F)c(Cl)c3C(F)(F)F)c(F)c3nc(OC[C@@]45CCCN4C[C@H](F)C5)nc(c23)N2C[C@H]3CC[C@H](N3)[C@@H]12` [Compound 104, 3-Chloro-2-fluoro-5-((5S,5aS,6S,9R)-1-fluoro-12-(((2R,7aS)-2-fluorotetrahydro-1H-pyrrolizin-7a(5H)-yl)methoxy)-5-methyl-5a,6,7,8,9,10-hexahydro-5H-4-oxa-3,10a,11,13,14-pentaaza-6,9-methanonaphtho[1,8-ab]heptalen-2-yl)-4-(trifluoromethyl)aniline], for which the half-inhibitory concentration (IC50) was found to be 0.05 nM at KRAS G12D and 0.71 nM on KRAS WT.

With `Cc1c(F)c(N)cc(-c2nc3c4c(nc(OCCCN5C[C@@H]6C[C@H]5CO6)nc4c2F)N2C[C@H]4CC[C@H](N4)[C@H]2[C@H](C)O3)c1C(F)(F)F` [Compound 164, 5-((5S,5aS,6S,9R)-12-(3-((1S,4S)-2-oxa-5-azabicyclo[2.2.1]heptan-5-yl)propoxy)-1-fluoro-5-methyl-5a,6,7,8,9,10-hexahydro-5H-4-oxa-3,10a,11,13,14-pentaaza-6,9-methanonaphtho[1,8-ab]heptalen-2-yl)-2-fluoro-3-methyl-4-(trifluoromethyl)aniline], the IC50 stood at 0.15 nM at KRAS G12D and 30.6 nM at KRAS WT.

Turning to `Cc1cc(N)cc(-c2nc3c4c(nc(OC[C@]56CCCN5CC(F)(F)C6)nc4c2F)N2C[C@H]4CC[C@H](N4)[C@H]2[C@H](C)O3)c1C(F)(F)F` [Compound 69, 3-((5S,5aS,6S,9R)-12-(((R)-2,2-Difluorotetrahydro-1H-pyrrolizin-7a(5H)-yl)methoxy)-1-fluoro-5-methyl-5a,6,7,8,9,10-hexahydro-5H-4-oxa-3,10a,11,13,14-pentaaza-6,9-methanonaphtho[1,8-ab]heptalen-2-yl)-5-methyl-4-(trifluoromethyl)aniline], the half-maximal inhibitory concentration (IC50) on KRAS G12D is 0.31 nM; at KRAS WT, 40.9 nM.

In the case of `Cc1c(F)c(N)cc(-c2nc3c4c(nc(OC[C@H]5[C@@H](O)CCN5C)nc4c2F)N2C[C@H]4CC[C@H](N4)[C@H]2[C@H](C)O3)c1C(F)(F)F` [Compound 162, (2S,3S)-2-((((5S,5aS,6S,9R)-2-(5-Amino-4-fluoro-3-methyl-2-(trifluoromethyl)phenyl)-1-fluoro-5-methyl-5a,6,7,8,9,10-hexahydro-5H-4-oxa-3,10a,11,13,14-pentaaza-6,9-methanonaphtho[1,8-ab]heptalen-12-yl)oxy)methyl)-1-methylpyrrolidin-3-ol], the IC50 at KRAS G12D stood at 0.13 nM; on KRAS WT, 41.3 nM.

Take `Cc1c(F)c(N)cc(-c2nc3c4c(nc(OC[C@@]5(CCF)CCCN5C)nc4c2F)N2C[C@H]4CC[C@H](N4)[C@H]2[C@H](C)O3)c1C(F)(F)F` (single isomer, unassigned) [127 (isomer 1)]: the IC50 at KRAS G12D is 0.14 nM; on KRAS WT, 17.9 nM.
